# Target: Substance-P receptor (Bos taurus)
# Assay: In vitro binding affinity for Tachykinin receptor 1 of bovine retinal membranes using [3H]Sar9-substance P as radioligand
row,IC50 [nM],SMILES
1,0.5,"CN(C(=O)c1cc(C(F)(F)F)cc(C(F)(F)F)c1)[C@@H](/C=C/C(=O)N[C@@H]1CCCCNC1=O)Cc1cn(C)c2ccccc12 [N-Methyl-N-[(E)-(R)-1-(1-methyl-1H-indol-3-ylmethyl)-3-((R)-2-oxo-azepan-3-ylcarbamoyl)-allyl]-3,5-bis-trifluoromethyl-benzamide]"
2,4.8,"CN(C(=O)c1cc(C(F)(F)F)cc(C(F)(F)F)c1)[C@@H](/C=C/C(=O)N[C@@H]1CCCCNC1=O)Cc1ccc(Cl)c(Cl)c1 [N-[(R,R)-(E)-(3,4-dichlorobenzyl)-3-(2-oxoazepan-3-yl)carbamoyl]allyl-N-methyl-3,5-bis(trifluoromethyl)benzamide]"
3,1.1,"CN(C(=O)c1cc(C(F)(F)F)cc(C(F)(F)F)c1)[C@@H](/C=C/C(=O)N[C@@H]1CCCCNC1=O)Cc1ccc2ccccc2c1 [N-Methyl-N-[(E)-(R)-1-naphthalen-2-ylmethyl-3-((R)-2-oxo-azepan-3-ylcarbamoyl)-allyl]-3,5-bis-trifluoromethyl-benzamide]"
4,1,"CN(C(=O)c1cc(C(F)(F)F)cc(C(F)(F)F)c1)[C@@H](/C=C/C(=O)NC1(C(N)=O)CCCCC1)Cc1ccc(Cl)cc1 [N-[(E)-(R)-3-(1-Carbamoyl-cyclohexylcarbamoyl)-1-(4-chloro-benzyl)-allyl]-N-methyl-3,5-bis-trifluoromethyl-benzamide]"
5,18,"CN(C(=O)c1cc(C(F)(F)F)cc(C(F)(F)F)c1)N(CCC(=O)N[C@@H]1CCCCNC1=O)Cc1cc(Br)c(Br)s1 [3-[N'-(3,5-Bis-trifluoromethyl-benzoyl)-N-(4,5-dibromo-thiophen-2-ylmethyl)-N'-methyl-hydrazino]-N-((R)-2-oxo-azepan-3-yl)-propionamide]"
6,12,"CN(C(=O)c1cc(C(F)(F)F)cc(C(F)(F)F)c1)[C@@H](/C=C/C(=O)NC1CCCCCC1)Cc1ccc(Cl)cc1 [N-[(E)-(R)-1-(4-Chloro-benzyl)-3-cycloheptylcarbamoyl-allyl]-N-methyl-3,5-bis-trifluoromethyl-benzamide]"
7,1.4,"CN(C(=O)c1cc(C(F)(F)F)cc(C(F)(F)F)c1)N(CCC(=O)N[C@@H]1CCCCNC1=O)Cc1ccc(Cl)c(Cl)c1 [3-[N'-(3,5-Bis-trifluoromethyl-benzoyl)-N-(3,4-dichloro-benzyl)-N'-methyl-hydrazino]-N-((R)-2-oxo-azepan-3-yl)-propionamide]"
8,20,"CN(C(=O)c1cc(C(F)(F)F)cc(C(F)(F)F)c1)[C@@H](/C=C/C(=O)N[C@@H]1CCCCNC1=O)Cc1cc(Br)c(Br)s1 [N-[(E)-(R)-1-(4,5-Dibromo-thiophen-2-ylmethyl)-3-((R)-2-oxo-azepan-3-ylcarbamoyl)-allyl]-N-methyl-3,5-bis-trifluoromethyl-benzamide]"
9,6.4,"CN(C(=O)c1cc(C(F)(F)F)cc(C(F)(F)F)c1)N(CCC(=O)N[C@@H]1CCCCNC1=O)Cc1ccc2ccccc2c1 [3-[N'-(3,5-Bis-trifluoromethyl-benzoyl)-N'-methyl-N-naphthalen-2-ylmethyl-hydrazino]-N-((R)-2-oxo-azepan-3-yl)-propionamide]"

# — BindingDB's records for doi:10.1016/s0960-894x(01)00631-x (Novartis Pharma, 2001)
